One data set relates to senescent cells. The data set can be described thus: Senescent cell killing, CellTiter-Glo cell viability. The conditions noted are these: activity of killing senescent cells; cell type not specified. The format is cell-based, human, mouse. The text has this: In this test example, human non-small cell lung cancer cell line (A549 cells), human embryonic lung fibroblast cell line (IMR90 cells), human retinal pigment epithelial cells (RPE cells), mouse chondrocytes, and mouse skin fibroblasts were selected. The above cells were induced by etoposide ([…]) to obtain their senescent cells. The effect of the target compounds on the viability of normal and senescent cells above was examined, thus assessing the specific killing effect of the compounds on senescent cells above.
Briefly, senescent and normal cells above were selected and plated separately (96-well plates). […] 2A to 2E.

Another data set concerns diabetic retinopathy. In words: Mouse model of diabetic retinopathy (STZ), retinal Evans blue penetration assay. In kind it is in vivo. The conditions noted are these: intravitreal (IVT), 1 μL of 200 μM at 8 and 9 weeks after STZ, FIG. 4. As to the method:
The efficacy of the compounds of the present disclosure was studied in a mouse model of diabetic retinopathy by multiple administrations of streptozotocin (STZ). C57BL/6J mice at 6 to 7 weeks were weighed and their baseline blood glucose was measured (Sino). STZ (Sigma-Alderich) was injected intraperitoneally into the mice at 55 mg/Kg for five consecutive days. Age-matched controls were injected with buffer only. Blood glucose was measured again one week after the last STZ injection. 1 μL of the test compound (200 μM, a suspension formulated in 0.015% polysorbate 80, 0.2% sodium phosphate, 0.75% sodium chloride, pH 7.2) was injected intravitreally into the STZ-treated diabetic C57BL/6J mice at 8 and 9 weeks after STZ administration. 10 weeks after STZ treatment, the retinal Evans blue penetration assay was performed.

Data set [1] has as its system wet-age-related macular degeneration. In words: CNV animal model of wet-age-related macular degeneration. The settings on record: intravitreal (IVT), FIG. 5. In kind it is in vivo, mice. The procedure: In this test example, the efficacy of the compounds of the present disclosure was tested on wet-age-related macular degeneration in a CNV animal model.
Male mice were administered 0.5% probacaine hydrochloride (Alcon) for local anesthesia, and 1% tropicamide to dilate the pupils of the mice. Laser cauterization was performed using a laser photocoagulator (Novus Varia, LUMENIS) with a slit lamp delivery system. And artificially torn adherent glass coverslips were used as contact lenses. Bleeding spots caused by lasers were not included in the statistics. In each experimental group, six mice were analyzed with four impacts per eye to overcome inherent variability.

Data set [2] has as its system idiopathic pulmonary fibrosis. In words: Idiopathic pulmonary fibrosis animal model (bleomycin). The format is in vivo, SD rats. The settings on record: intraperitoneal (IP) 5 mg/kg, 3 consecutive weeks, FIG. 6; for pathology scores: H&E and Masson staining; for WBC: alveolar lavage fluid; for HYP: lung tissue. The procedure:
In this test example, the efficacy of the compounds of the present disclosure was tested on idiopathic pulmonary fibrosis in an idiopathic pulmonary fibrosis animal model. Briefly, anesthetized 6-week-old SD rats were fixed on a foam board with medical tape. Firstly, the skin on the surface of the trachea was cut with surgical scissors to fully expose the trachea, and a 100-microlitre micro-syringe containing a certain volume of bleomycin (BLM 5 mg/kg) solution drawn based on the body weight of the rat was inserted into the trachea through the oral cavity to administer by slow bolus injection. After administration of the BLM solution, the foam plate was immediately rotated and shaken to distribute the BLM solution as evenly as possible in the lung tissue. Then the skin on the surface of the trachea was sutured with surgical sutures and about 0.5 to 1.0 mL of penicillin solution was dripped onto the epidermis to prevent infection of the surgical wound. After the 7th day of modelling, the compound solution of the present disclosure was administered via intraperitoneal (IP) injection (5 mg/kg) according to the weight of the rat for 3 consecutive weeks. Rats were euthanized by carbon dioxide on Day 28, the lung tissues were removed, the left alveolar lavage fluid was collected for white blood cell (WBC) counting, the right lung tissue portion was used for hydroxyproline (HYP) assay, and the remaining lung tissues were stained for pathology by H&E staining and Masson staining.

For the next data set, the system named is osteoarthritis. The data set can be described thus: Osteoarthritis animal model. The format is in vivo, mice. The settings on record: intra-articular injection, FIG. 7. The procedure: In this test example, the efficacy of the compounds of the present disclosure was tested on osteoarthritis in an osteoarthritis animal model.
The osteoarthritis animal model was constructed by the following steps. The mice were anesthetized with isoflurane, and fixed. The hair on the right hind limb of the mice was shaved and the skin was disinfected with alcohol, and the skin of the joints was cut. Under an optical microscope, the inside of the right knee joint was incised longitudinally with a blade, without cutting the patellar ligament. The patellar ligament was pulled to one side with constant hemostasis by compression with sterile cotton swabs such that the joint cavity was fully exposed. Saline was added dropwise in time to avoid the drying up of the joint cavity. The excess muscle tissue was gently separated with a blunt forceps to expose the meniscus ligament. The anterior cruciate ligament was found in the depth of the joint cavity and cut with a micro scissor. Then the wound was disinfected with penicillin solution, the muscle was sutured with sterile needle and thread, and the skin tissue was finally sutured. The efficacy of the drug was determined by intra-articular injection administration. At the endpoint of the test, continued pain threshold of the plantar was detected, and the bone joints were stained with safranin fast green.

The next data set has as its system Alzheimer's disease. In words: Alzheimer's disease APP×PS1 transgenic mouse model. The format is in vivo. The settings on record: intraperitoneal injection, 11 consecutive weeks, twice a week, FIG. 8. The procedure:
In this test example, the efficacy of the compounds of the present disclosure was tested on Alzheimer's disease in an animal model of Alzheimer's disease. Briefly, a transgenic mouse model of APP×PS1 (purchased from Cyagen Biosciences) was selected, and the compound of the present disclosure was administered by intraperitoneal injection for 11 consecutive weeks, twice a week. Alterations in amyloid in the cerebral cortex of the mice were observed.

A further data set concerns aging skin. The data set can be described thus: Aging skin, naturally aging mouse model. In kind it is in vivo, C57bl/6J mice. The conditions noted are these: skin application twice a week for 6 consecutive weeks, FIG. 10. As to the method:
In this test example, aged female C57bl/6J mice (22 months old) were used. The drug was administered by skin application twice a week for 6 consecutive weeks.

A further data set relates to platelets. The data set can be described thus: Platelet toxicity test in mice (platelet count). The format is in vivo. As to the method: In this test example, C57 mice were chosen to detect the effect of the target compounds on platelets.
7 to 8 weeks old […] mice were randomly divided into vehicle group and compound group. The test compound (0.5 mg/kg) or blank vehicle was administrated via single intraperitoneal injection. Blood was collected from the retroorbital venous plexus of the mice at 6 hours, and placed in a blood routine tube containing anticoagulant EDTA-K2. After shaking gently, the blood physiological indicators were measured using a hematology analyzer, with the platelet count as the target parameter for this platelet toxicity test.

In general, IC50 refers to the midpoint of a concentration-inhibition curve. The low end stands for higher potency, the high end for lower potency.

Regarding `Cc1c(-c2ccc(N3CCc4cccc(C(=O)Nc5nc6ccccc6s5)c4C3)nc2C(=O)N2CCN(CCO)CC2)cnn1CC12CC3CC(CC(C3)C1)C2` [RX002], the IC50 in the data set on senescent cells is less than 0.2 µM. In addition, in the data set on diabetic retinopathy, the “vascular permeability, choroidal vascular leakage” value is given as “improved” and the “vascular permeability, retinal vascular leakage” value was “improved”. For the same compound, the fluorescence intensity indicators result in data set [1] is “statistically significant improvements”. Moreover, in data set [2], the pathology scores entry is “statistically significant improvements”, the WBC result was “statistically significant improvements” and the HYP entry was “statistically significant improvements”. In the data set on osteoarthritis, the “pathology scores of safranin fast green staining” value was “statistically significant improvements” and the “plantar mechanical pain threshold” value is given as “statistically significant improvements”. The “Aβ42 pathogenic protein indicators” value with Alzheimer's disease was “statistically significant improvements”. For the same compound, the “epidermal thickness scores of the skins” value with aging skin was “statistically significant improvements”.
For `Cc1c(-c2ccc(N3CCc4cccc(C(=O)Nc5nc6ccccc6s5)c4C3)nc2C(=O)NC2CCN(Cc3ccccc3)CC2)cnn1CC12CC3CC(CC(C3)C1)C2` [RX003], in the data set with diabetic retinopathy, the “vascular permeability, choroidal vascular leakage” value was “improved” and the “vascular permeability, retinal vascular leakage” value is given as “improved”. The fluorescence intensity indicators result in data set [1] is “statistically significant improvements”. Also, in data set [2], the pathology scores result is reported as “statistically significant improvements”, the WBC result is listed as “statistically significant improvements” and the HYP entry was “statistically significant improvements”. Besides, in the data set on osteoarthritis, the “pathology scores of safranin fast green staining” value is “statistically significant improvements” and the “plantar mechanical pain threshold” value is “statistically significant improvements”. Also, the “Aβ42 pathogenic protein indicators” value with Alzheimer's disease is “statistically significant improvements”. Besides, in the data set with aging skin, the “epidermal thickness scores of the skins” value was “statistically significant improvements”.
`Cc1c(-c2ccc(N3CCc4cccc(C(=O)Nc5nc6ccccc6s5)c4C3)nc2C(=O)N2CCNC(=O)C2)cnn1CC12CC3CC(CC(C3)C1)C2` [RX004]: the IC50 in the data set on senescent cells was in the range of 0.2 to 1 µM.
The compound `Cc1c(-c2ccc(N3CCc4cccc(C(=O)Nc5nc6ccccc6s5)c4C3)nc2C(=O)NCc2ccco2)cnn1CC12CC3CC(CC(C3)C1)C2` [RX005] came in with an IC50 with senescent cells of more than 10 µM.
`Cc1c(-c2ccc(N3CCc4cccc(C(=O)Nc5nc6ccccc6s5)c4C3)nc2C(=O)N2CCN(C)CC2)cnn1CC12CC3CC(CC(C3)C1)C2` [RX007] gave an IC50 with senescent cells of 0.2 to 1 µM.
`Cc1c(-c2ccc(N3CCc4cccc(C(=O)Nc5nc6ccccc6s5)c4C3)nc2C(=O)N2CCNCC2)cnn1CC12CC3CC(CC(C3)C1)C2` [RX008] showed an IC50 in the data set on senescent cells of 0.2 to 1 µM.
Same read-out and setting: under `Cc1c(-c2ccc(N3CCc4cccc(C(=O)Nc5nc6ccccc6s5)c4C3)nc2C(=O)N2CCOCC2)cnn1CC12CC3CC(CC(C3)C1)C2` [RX009] stands less than 0.2 µM.
On the same count and under the same terms, under `Cc1c(-c2ccc(N3CCc4cccc(C(=O)Nc5nc6ccccc6s5)c4C3)nc2C(=O)NCC2CCOCC2)cnn1CC12CC3CC(CC(C3)C1)C2` [RX010] stands 0.2 to 1 µM.
On to `Cc1c(-c2ccc(N3CCc4cccc(C(=O)Nc5nc6ccccc6s5)c4C3)nc2C(=O)N2CCC(CO)CC2)cnn1CC12CC3CC(CC(C3)C1)C2` [RX011], for which, in the data set on platelets (mouse, in vivo, ip, 0.5 mg/kg), the “platelet toxicity (platelet count)” value is recorded as “significantly improved”. In the data set with senescent cells, this compound had an IC50 of less than 0.2 µM.
Compound `Cc1c(-c2ccc(N3CCc4cccc(C(=O)Nc5nc6ccccc6s5)c4C3)nc2C(=O)NCCN2CCOCC2)cnn1CC12CC3CC(CC(C3)C1)C2` [RX012] registered an IC50 with senescent cells of 0.2 to 1 µM.
Regarding `Cc1c(-c2ccc(N3CCc4cccc(C(=O)Nc5nc6ccccc6s5)c4C3)nc2C(=O)N2CCN(CCO)CC2)cnn1CC12CC3CC(CC(C3)C1)C2` [RX013], the “platelet toxicity (platelet count)” value in the data set with platelets (mouse, in vivo, ip, 0.5 mg/kg) is listed as “significantly improved”. The IC50 with senescent cells was less than 0.2 µM.
For `Cc1c(-c2ccc(N3CCc4cccc(C(=O)Nc5nc6ccccc6s5)c4C3)nc2C(=O)NCCO)cnn1CC12CC3CC(CC(C3)C1)C2` [RX014], the IC50 in the data set on senescent cells lay within 1 to 10 µM.
Same read-out and setting: under `Cc1c(-c2ccc(N3CCc4cccc(C(=O)Nc5nc6ccccc6s5)c4C3)nc2C(=O)NCC(=O)O)cnn1CC12CC3CC(CC(C3)C1)C2` [RX015] stands 1 to 10 µM.
Consider `Cc1c(-c2ccc(N3CCc4cccc(C(=O)Nc5nc6ccccc6s5)c4C3)nc2C(=O)N2CCN(CCN)CC2)cnn1CC12CC3CC(CC(C3)C1)C2` [RX016], for which the “platelet toxicity (platelet count)” value in the data set with platelets (mouse, in vivo, ip, 0.5 mg/kg) is on record as “significantly improved”. This compound gave an IC50 in the data set with senescent cells of 0.2 to 1 µM.
In the same order, the values of `Cc1c(-c2ccc(N3CCc4cccc(C(=O)Nc5nc6ccccc6s5)c4C3)nc2C(=O)N2CCC(O)CC2)cnn1CC12CC3CC(CC(C3)C1)C2` [RX019] are “significantly improved” and less than 0.2 µM.
In turn, `Cc1c(-c2ccc(N3CCc4cccc(C(=O)Nc5nc6ccccc6s5)c4C3)nc2C(=O)NCC(=O)OCc2ccccc2)cnn1CC12CC3CC(CC(C3)C1)C2` [RX020] yielded an IC50 in the data set on senescent cells of more than 10 µM.
For `CCOC(=O)C(C)NC(=O)c1nc(N2CCc3cccc(C(=O)Nc4nc5ccccc5s4)c3C2)ccc1-c1cnn(CC23CC4CC(CC(C4)C2)C3)c1C` (centres unmarked) [RX021], the IC50 in the data set on senescent cells lay in the range of 1 to 10 µM.
The same measure, in the same setting: under `CCOC(=O)CCC(NC(=O)c1nc(N2CCc3cccc(C(=O)Nc4nc5ccccc5s4)c3C2)ccc1-c1cnn(CC23CC4CC(CC(C4)C2)C3)c1C)C(=O)OCC` (centres unmarked) [RX022] stands more than 10 µM; under `Cc1c(-c2ccc(N3CCc4cccc(C(=O)Nc5nc6ccccc6s5)c4C3)nc2C(=O)N2CCC(OP(=O)(O)O)CC2)cnn1CC12CC3CC(CC(C3)C1)C2` [RX302], less than 0.2 µM.
With `Cc1c(-c2ccc(N3CCc4cccc(C(=O)Nc5nc6ccccc6s5)c4C3)nc2C(=O)N2CCN(CCOP(=O)(O)O)CC2)cnn1CC12CC3CC(CC(C3)C1)C2` [RX304], the “platelet toxicity (platelet count)” value in the data set on platelets (mice, 0.5 mg/kg single intraperitoneal injection, blood at 6 hours, FIG. 1) is recorded as “significantly improved”. The IC50 in the data set on senescent cells was less than 0.2 µM.

For the origin of these results see patent US20260256772A1, “BENZOTHIAZOLE COMPOUND AND USE THEREOF” (NANJING REJU THERAPEUTICS, INC., priority 2022, published 2026).
